According to US9540361B2, “N-substituted azetidine derivatives” (Merck Sharp & Dohme B.V., priority 2010, dated 2017):
Structures can show the parent of a compound that is named as a salt. Marks after values point to notes of the source that are not given here.

Assays:
[1] = target: T1, human estrogen receptor α (hERα) (Homo sapiens, UniProt P03372); experiment: antagonistic activity in CHO cells co-transfected with hERα, rat oxytocin promoter and luciferase reporter gene; format: cell-based; conditions: antagonism of 17β-estradiol-induced transactivation, CHO-hERα-RO-LUC; read-out: ERα pIC50 (converted)
T1 sequence (P03372 1-595): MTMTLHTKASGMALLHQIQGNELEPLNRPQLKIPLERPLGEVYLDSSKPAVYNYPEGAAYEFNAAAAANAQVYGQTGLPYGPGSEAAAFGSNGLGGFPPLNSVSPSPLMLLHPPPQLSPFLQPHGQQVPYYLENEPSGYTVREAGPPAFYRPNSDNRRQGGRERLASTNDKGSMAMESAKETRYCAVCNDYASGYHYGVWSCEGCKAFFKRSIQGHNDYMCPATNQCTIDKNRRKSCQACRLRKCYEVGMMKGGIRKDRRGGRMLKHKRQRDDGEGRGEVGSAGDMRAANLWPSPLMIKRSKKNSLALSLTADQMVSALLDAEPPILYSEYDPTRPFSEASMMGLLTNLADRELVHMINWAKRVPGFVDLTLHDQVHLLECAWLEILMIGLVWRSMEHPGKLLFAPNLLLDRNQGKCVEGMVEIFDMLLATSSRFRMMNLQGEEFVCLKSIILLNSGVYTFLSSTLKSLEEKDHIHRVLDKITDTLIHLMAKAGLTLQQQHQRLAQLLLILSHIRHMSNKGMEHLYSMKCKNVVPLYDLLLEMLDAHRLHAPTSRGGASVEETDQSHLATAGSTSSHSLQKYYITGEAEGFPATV
Experimental: The antagonistic activity of compounds on the estrogen receptors was determined in an in vitro bioassay with recombinant Chinese Hamster Ovary (CHO) cells stably co-transfected with the human estrogen receptor α (hERα), the rat oxytocin promoter (RO) and the luciferase reporter gene (LUC). […] The antagonistic efficacy, i.e. the amount of maximal inhibition of the 17β-estradiol activated receptor by a compound, is expressed as fraction relative to the maximal inhibition as induced by the standard anti-estrogen ICI 164,384 (efficacy test compound=(maximal inhibition test compound/maximal inhibition ICI 164,384)). A more detailed description of the methodology can be found in De Gooyer et al., Steroids, 68 (2003) 21-30.

[2] = target: T2, estrogen receptor alpha (Homo sapiens, UniProt P03372); experiment: ERα downregulation assay in T47D breast cancer cells (ERα ELISA); format: cell-based; conditions: downregulation of ERα relative to fulvestrant (100%), 1E-5 M, 24 hours, negative = upregulation
T2 construct: endogenous in cells; host or cells: T47D human breast cancer cells (ATCC)
T2 sequence (P03372 1-595): T1 sequence (P03372 1-595)
Description: More specifically, this in vitro bioassay is used to determine the efficacy (fraction of maximal response) of the compound by comparing the data for this compound with those of the reference compound ICI 182,780 (fulvestrant) in the same test (downregulation of fulvestrant is 100% by definition).
A more detailed description of the method used is as follows.
Cell culture. The human epithelial breast cancer cell line T47D (origin: ATCC) was routinely maintained in a 1:1 mixture of Ham's F12 medium and Dulbecco's Modified Eagle Medium (Gibco) enriched with 5% fetal calf serum (Hyclone), 10 mM HEPES pH 7.5 and 100 μg/ml penicillin-streptomycin solution. Cells were grown in 80 cm2 culture flasks (Nunc, Roskilde, Denmark) and kept in an atmosphere of 5% CO2-95% air at 37 degrees Celsius. Cells were subcultured when they reached about 80-90% confluence, resulting in one passage a week. Subculturing includes detaching the cells using Cell Dissociation Buffer [Sigma] and subsequent inoculation at 1:5 or 1:10 in a new Roux flask (175 cc) and\or plating out in Nunclon™ Surface 96 wells microplates. The culture medium needs to be refreshed on day three or four of the incubation, if applicable.
Determination of ERα protein levels: T47D cells in the microplates are incubated with 1E-5 M test compound for 24 hours. The supernatant in all wells is carefully aspirated. Cells are lysed on the microplate and cell lysates are probed for ERα content using an ERα ELISA assay kit (Active Motif).

## CCCN1CC(Oc2ccc(C(=C(CC)c3ccccc3)c3ccc(O)cc3)cc2)C1 (mixture of isomers) [compound 6v, (E/Z)-4-(2-phenyl-1-(4-(1-propylazetidin-3-yloxy)phenyl)but-1-enyl)phenol 2,-2,2-trifluoroacetate]
[1]
  IC50: 0.501 nM
[2]
  DR (%): −5 ^(d) %

## CCCN1CC(Oc2ccc(C(=C(Cl)c3ccccc3)c3ccccc3)cc2)C1 (mixture of isomers) [compound 6x, (E/Z)-3-(4-(2-chloro-1,2-diphenylvinyl)phenoxy)-1-propylazetidine 2,2,2-trifluoroacetate]
[1]
  IC50: 7.94 nM
[2]
  DR (%): 63%

## CCCN1CC(Oc2ccc(C(=O)c3c(-c4cccn4C)noc3-c3ccc(O)cc3)cc2)C1.Cl [7al, (5-(4-hydroxyphenyl)-3-(1-methyl-1H-pyrrol-2-yl)isoxazol-4-yl)(4-(1-propylazetidin-3-yloxy)phenyl)methanone hydrochloride]
[1]
  IC50: 7.94 nM
[2]
  DR (%): 100%

## CN1CC(Oc2ccc(-c3c(-c4ccc(O)cc4)sc4cc(O)ccc34)cc2)C1 [compound 6a, 2-(4-hydroxyphenyl)-3-(4-(1-methylazetidin-3-yloxy)phenyl)benzo[b]thiophen-6-ol 2,2,2-trifluoroacetate]
[1]
  IC50: 0.794 nM

## CCCN1CC(Oc2ccc(Oc3c(-c4ccc(O)cc4)sc4cc(O)ccc34)cc2)C1.O=C(O)C(F)(F)F [compound 6c, 2-(4-hydroxyphenyl)-3-(4-(1-propylazetidin-3-yloxy)phenoxy)benzo[b]thiophen-6-ol 2,2,2-trifluoroacetate]
[1]
  IC50: 0.251 nM
[2]
  DR (%): 7 ^(c) %

## CC(C)N1CC(Oc2ccc(C(=O)c3c(-c4ccc(O)cc4)sc4cc(O)ccc34)cc2)C1 [compound 6e, (6-hydroxy-2-(4-hydroxyphenyl)benzo[b]thiophen-3-yl)(4-(1-isopropylazetidin-3-yloxy)phenyl)methanone hydrochloride]
[1]
  IC50: 1.58 nM

## Oc1ccc(-c2onc(-c3ccccc3Cl)c2-c2ccc(OC3CNC3)cc2)cc1 [compound 6f, 4-(4-(4-(azetidin-3-yloxy)phenyl)-3-(2-chlorophenyl)isoxazol-5-yl)phenol]
[1]
  IC50: 15.8 nM

## CCCCN1CC(Oc2ccc(-c3c(-c4ccccc4Cl)noc3-c3ccc(O)cc3)cc2)C1 [compound 6h, 4-(4-(4-(1-butylazetidin-3-yloxy)phenyl)-3-(2-chlorophenyl)isoxazol-5-yl)-phenol hydrochloride]
[1]
  IC50: 0.631 nM

## CCC(C)N1CC(Oc2ccc(-c3c(-c4ccccc4Cl)noc3-c3ccc(O)cc3)cc2)C1 (stereo not shown) [compound 6i, 4-(4-(4-(1-sec-butylazetidin-3-yloxy)phenyl)-3-(2-chlorophenyl)isoxazol-5-yl)-phenol hydrochloride]
[1]
  IC50: 1 nM

## CCCN1CC(Oc2ccc(-c3c(-c4ccccc4C)noc3-c3ccc(O)cc3)cc2)C1 [compound 6j, 4-(4-(4-(1-propylazetidin-3-yloxy)phenyl)-3-o-tolylisoxazol-5-yl)phenol 2,2,2-trifluoroacetate]
[1]
  IC50: 0.398 nM

## CCCN1CC(Oc2ccc(-c3c(-c4ccccc4Cl)noc3-c3ccc(O)cc3C)cc2)C1 [compound 6k, 4-(3-(2-chlorophenyl)-4-(4-(1-propylazetidin-3-yloxy)phenyl)isoxazol-5-yl)-3-methylphenol 2,2,2-trifluoroacetate]
[1]
  IC50: 0.501 nM

## CCCN1CC(Oc2ccc(-c3c(-c4ccccc4Cl)noc3-c3ccc(O)c(C)c3)cc2)C1 [compound 6l, 4-(3-(2-chlorophenyl)-4-(4-(1-propylazetidin-3-yloxy)phenyl)isoxazol-5-yl)-2-methylphenol 2,2,2-trifluoroacetate]
[1]
  IC50: 0.631 nM

## CCCN1CC(Oc2ccc(C(=O)c3c(-c4ccc(O)cc4)noc3-c3ccccc3Cl)cc2)C1 [compound 6n, (5-(2-chlorophenyl)-3-(4-hydroxyphenyl)isoxazol-4-yl)(4-(1-propylazetidin-3-yloxy)phenyl)methanone]
[1]
  IC50: 3.98 nM
[2]
  DR (%): 62%

## CCCN1CC(Oc2ccc([C@H]3c4ccc(OC)cc4OC(C)(C)[C@@H]3c3ccccc3)cc2)C1.O=C(O)C(F)(F)F [compound 6o, 3-(4-((3S,4S)-7-methoxy-2,2-dimethyl-3-phenylchroman-4-yl)phenoxy)-1-propylazetidine 2,2,2-trifluoroacetate]
[1]
  IC50: 25.1 nM
[2]
  DR (%): 75%

## CCCN1CC(Oc2ccc([C@H]3c4ccc(O)cc4OC(C)(C)[C@@H]3c3ccccc3)cc2)C1.O=C(O)C(F)(F)F [compound 6p, (3S,4S)-2,2-dimethyl-3-phenyl-4-(4-(1-propylazetidin-3-yloxy)phenyl)chroman-7-ol 2,2,2-trifluoroacetate]
[1]
  IC50: 3.98 nM
[2]
  DR (%): 58%

## CCCN1CC(Oc2ccc(Cc3c(-c4ccccc4)c(=O)oc4cc(O)ccc34)cc2)C1 [compound 6r, 7-hydroxy-3-phenyl-4-(4-(1-propylazetidin-3-yloxy)benzyl)-2H-chromen-2-one 2,2,2-trifluoroacetate]
[1]
  IC50: 1.58 nM

## CCCN1CC(Oc2ccc([C@H]3C[C@]4(C)[C@@H](O)CC[C@H]4[C@@H]4CCc5cc(O)ccc5C34)cc2)C1 (stereo partly drawn) [compound 6s, (8S,11S,13S,14S,17S)-13-methyl-11-(4-(1-propylazetidin-3-yloxy)phenyl)-7,-8,9,10,11,12,13,14,15,16,17-decahydro-6H-cyclopenta[a]phenanthrene-3,17-diol]
[1]
  IC50: 2.51 nM

## C[C@]12C[C@H](c3ccc(OC4CN(CC5CC5)C4)cc3)C3c4ccc(O)cc4CC[C@H]3[C@@H]1CC[C@@H]2O (stereo partly drawn) [compound 6t, (8S,11S,13S,14S,17S)-11-(4-(1-(cyclopropylmethyl)azetidin-3-yloxy)phenyl)-13-methyl-7,8,9,10,11,12,13,14,15,16,17-decahydro-6H-cyclopenta[a]phenanthrene-3,17-diol]
[1]
  IC50: 3.16 nM

## CCCN1CC(Oc2ccc(-c3c(-c4c(C)cccc4Cl)noc3-c3ccc(O)cc3)cc2)C1.O=C(O)C(F)(F)F [compound 7ab, 4-(3-(2-chloro-6-methylphenyl)-4-(4-(1-propylazetidin-3-yloxy)phenyl)isoxazol-5-yl)phenol 2,2,2-trifluoroacetate]
[1]
  IC50: 0.398 nM
[2]
  DR (%): 86%

## CCCN1CC(Oc2ccc(-c3c(-c4cccc(C)c4C)noc3-c3ccc(O)cc3)cc2)C1.O=C(O)C(F)(F)F [compound 7ac, 4-(3-(2,3-dimethylphenyl)-4-(4-(1-propylazetidin-3-yloxy)phenyl)isoxazol-5-yl)phenol 2,2,2-trifluoroacetate]
[1]
  IC50: 1.58 nM
[2]
  DR (%): 94%

## CCCN1CC(Oc2ccc(-c3c(-c4ccccc4CC)noc3-c3ccc(O)cc3)cc2)C1.O=C(O)C(F)(F)F [compound 7ad, 4-(3-(2-ethylphenyl)-4-(4-(1-propylazetidin-3-yloxy)phenyl)isoxazol-5-yl)-phenol 2,2,2-trifluoroacetate]
[1]
  IC50: 1 nM
[2]
  DR (%): 92%

## CCCN1CC(Oc2ccc(-c3c(-c4snnc4C)noc3-c3ccc(O)cc3)cc2)C1.Cl [compound 7ae, 4-(3-(4-methyl-1,2,3-thiadiazol-5-yl)-4-(4-(1-propylazetidin-3-yloxy)phenyl)isoxazol-5-yl)phenol hydrochloride]
[1]
  IC50: 12.6 nM
[2]
  DR (%): 99%

## CCCN1CC(Oc2ccc(-c3c(-c4c(C)noc4C)noc3-c3ccc(O)cc3)cc2)C1.Cl [compound 7af, 4-(3′,5′-dimethyl-4-(4-(1-propylazetidin-3-yloxy)phenyl)-3,4′-biisoxazol-5-yl)-phenol hydrochloride]
[1]
  IC50: 3.16 nM
[2]
  DR (%): 92%

## CCCN1CC(Oc2ccc(C(=O)c3c(-c4ccccc4)noc3-c3ccc(O)cc3)cc2)C1.Cl [compound 7ai, (5-(4-hydroxyphenyl)-3-phenylisoxazol-4-yl)(4-(1-propylazetidin-3-yloxy)-phenyl)methanone hydrochloride]
[1]
  IC50: 7.94 nM
[2]
  DR (%): 96%
